Literature values in patent US20090105632A1 (priority 2007, published 2009).

Experiments:
[1] = 10 mM citrate buffer at pH 5
[2] = oral route, metabolized by the liver
Parkinson's disease = conditions: lisuride administration at about 1.1 mg/day

Q: What does the source list for `CCN(CC)C(=O)N[C@H]1C=C2c3cccc4[nH]cc(c34)C[C@H]2N(C)C1` [lisuride, N′-[(8α)-9,10-didehydro-6-methylergolin-8-yl]-N,N-diethylurea]?
A: solubility [1]: about 1.8 mg/ml; pKa: about 8; bioavailability [2]: about 25%; antiparkinsonian response (Parkinson's disease): equal to that achieved with doses of levopoda monotherapy of 668 mg/day
